ChEMBL document CHEMBL3751802, “Identification of six new lupane-type triterpenoids from Acanthopanax koreanum leaves and their tyrosinase inhibitory activities” (Bioorg Med Chem Lett, 2016)
pIC50: −log10 of the molar value.

Columns and labels:
[1] = target: T1, Tyrosinase (Agaricus bisporus) (UniProt O42713); assay: Inhibition of mushroom tyrosinase using L-tyrosine as substrate at >12.5 uM measured every 1 min for 20 mins by spectrophotometric assay relative to control
T1 sequence (whole entry): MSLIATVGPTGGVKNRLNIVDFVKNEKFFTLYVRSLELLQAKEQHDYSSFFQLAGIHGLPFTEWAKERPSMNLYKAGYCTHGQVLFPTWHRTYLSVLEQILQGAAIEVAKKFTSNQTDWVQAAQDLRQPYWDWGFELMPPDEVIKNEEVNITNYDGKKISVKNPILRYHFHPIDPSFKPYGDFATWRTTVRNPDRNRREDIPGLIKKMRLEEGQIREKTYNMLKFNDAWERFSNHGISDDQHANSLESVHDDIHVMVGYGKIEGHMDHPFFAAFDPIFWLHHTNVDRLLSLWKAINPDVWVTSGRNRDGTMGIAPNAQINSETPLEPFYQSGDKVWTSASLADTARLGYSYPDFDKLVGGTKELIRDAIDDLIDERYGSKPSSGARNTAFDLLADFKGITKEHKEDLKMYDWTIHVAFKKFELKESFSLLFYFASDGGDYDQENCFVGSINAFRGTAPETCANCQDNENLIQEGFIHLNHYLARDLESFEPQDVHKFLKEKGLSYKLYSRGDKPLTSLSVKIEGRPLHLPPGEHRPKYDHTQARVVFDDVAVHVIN

[2] = target: T2, Tyrosinase (Agaricus bisporus, UniProt O42713); assay: Inhibition of mushroom tyrosinase using L-tyrosine as substrate measured every 1 min for 20 mins by spectrophotometric assay
T2 sequence (O42713 whole entry): T1 sequence (whole entry)

inhibition [1] [%] | pIC50 [2] | Compound
< 100 | 4.20 | C=C(CO)[C@@H]1CC[C@]2(C(=O)O)CC[C@]3(C)[C@H](C[C@@H](O)[C@@H]4[C@@]5(C)CC[C@@H](O)[C@@](C)(C=O)[C@@H]5CC[C@]43C)[C@@H]12
< 100 | – | C=C(CO)[C@@H]1CC[C@]2(C(=O)O)CC[C@]3(C)[C@H](C[C@@H](O)[C@@H]4[C@@]5(C)CC[C@@H](O)[C@@](C)(C(=O)O)[C@@H]5CC[C@]43C)[C@@H]12
< 100 | – | C=C(CO)[C@@H]1CC[C@]2(C(=O)O)CC[C@]3(C)[C@H](C[C@@H](O)[C@@H]4[C@@]5(C)CC[C@@H](O)C(C)(C)[C@@H]5CC[C@]43C)[C@@H]12
< 100 | 4.59 | C=C(C)[C@@H]1CC[C@]2(C(=O)O)CC[C@]3(C)[C@H](CC[C@@H]4[C@@]5(C)CC[C@@H](O)[C@@](C)(C=O)[C@@H]5CC[C@]43C)[C@@H]12
< 100 | – | CC(=O)[C@@H]1CC[C@]2(C(=O)O)CC[C@]3(C)[C@H](C[C@@H](O)[C@@H]4[C@@]5(C)CC[C@@H](O)C(C)(C(=O)O)[C@@H]5CC[C@]43C)[C@@H]12 (some centres not stated)
< 100 | – | C[C@H](C=O)[C@@H]1CC[C@]2(C(=O)O)CC[C@]3(C)[C@H](CC[C@@H]4[C@@]5(C)CC[C@@H](O)[C@@](C)(C(=O)O)[C@@H]5CC[C@]43C)[C@@H]12
< 100 | 5.06 | C[C@]12CC[C@@H](O)[C@@](C)(C(=O)O)[C@@H]1CC[C@]1(C)[C@@H]2CC[C@@H]2[C@H]3[C@H]([C@](C)(O)CO)CC[C@]3(C(=O)O)CC[C@]21C
< 100 | 4.77 | CC1=CC[C@@H](C(C)(C)O[C@@H]2O[C@H](CO)[C@@H](O)[C@H](O)[C@H]2O)CC1
< 100 | – | COC(OC)[C@H](C)[C@@H]1CC[C@]2(C(=O)O)CC[C@]3(C)[C@H](CC[C@@H]4[C@@]5(C)CC[C@@H](O)[C@@](C)(C(=O)O)[C@@H]5CC[C@]43C)[C@@H]12
< 100 | – | C[C@@]12CCC[C@@](C)(C(=O)O[C@@H]3O[C@H](CO)[C@@H](O)[C@H](O)[C@H]3O)[C@H]1CC[C@@]13C[C@H](CC[C@H]12)[C@@](O)(CO)C3
< 100 | – | C=C(C)[C@@H]1CC[C@]2(C(=O)O)CC[C@]3(C)[C@H](C[C@@H](O)[C@@H]4[C@@]5(C)CC[C@@H](O)C(C)(C=O)[C@@H]5CC[C@]43C)[C@@H]12 (some centres not stated)
< 100 | – | C[C@H](CO)[C@@H]1CC[C@]2(C(=O)O)CC[C@]3(C)[C@H](CC[C@@H]4[C@@]5(C)CC[C@@H](O)[C@@](C)(C=O)[C@@H]5C[C@H](O)[C@]43C)[C@@H]12

Compound | inhibition [1] [%] | pIC50 [2]
C=C(C)[C@@H]1CC[C@]2(C(=O)O)CC[C@]3(C)[C@H](CC[C@@H]4[C@@]5(C)CC[C@@H](O)C(C)(C(=O)O)[C@@H]5CC[C@]43C)[C@@H]12 (some centres not stated) | < 100 | –
